Reference: PubChem BioAssay AID248 (DTP/NCI, 2004)
Inconclusive results and toxic doses are left out. Rule as the data show it: active = T/C of 150% or more; inactive = T/C below 125%.

Tested on: L1210 leukemia ip in BDF1 mice, survival T/C
Experiment: NCI In Vivo Anticancer Drug Screen. Data for tumor model L1210 Leukemia (intraperitoneal) in B6D2F1 (BDF1) mice
Details: endpoint: mean survival time, higher = longer survival
In short: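 Transplantable tumor model; survival measured in treated vs vehicle control mice. Value = treated/control.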

[1] = dose: 100.0 mg/kg/injection, schedule: Q04DX002 (ip), vehicle: Klucel (hydroxypropylcellulose) (HPC)
[2] = dose: 200.0 mg/kg/injection, schedule: Q04DX002 (ip), vehicle: Klucel (hydroxypropylcellulose) (HPC)
[3] = dose: 400.0 mg/kg/injection, schedule: Q04DX002 (ip), vehicle: Klucel (hydroxypropylcellulose) (HPC)
[4] = dose: 100.0 mg/kg/injection, schedule: Q04DX003 (ip), vehicle: saline with Tween-80
[5] = dose: 200.0 mg/kg/injection, schedule: Q04DX003 (ip), vehicle: saline with Tween-80
[6] = dose: 400.0 mg/kg/injection, schedule: Q04DX003 (ip), vehicle: saline with Tween-80
[7] = dose: 100.0 mg/kg/injection, schedule: Q04DX003 (ip), vehicle: Klucel (hydroxypropylcellulose) (HPC)
[8] = dose: 200.0 mg/kg/injection, schedule: Q01DX009 (ip), vehicle: Klucel (hydroxypropylcellulose) (HPC)
[9] = dose: 200.0 mg/kg/injection, schedule: Q04DX003 (ip), vehicle: Klucel (hydroxypropylcellulose) (HPC)
[10] = dose: 400.0 mg/kg/injection, schedule: Q01DX009 (ip), vehicle: Klucel (hydroxypropylcellulose) (HPC)
[11] = dose: 400.0 mg/kg/injection, schedule: Q04DX003 (ip), vehicle: Klucel (hydroxypropylcellulose) (HPC)
[12] = dose: 100.0 mg/kg/injection, schedule: Q01DX001 (ip), vehicle: Klucel (hydroxypropylcellulose) (HPC)
[13] = dose: 200.0 mg/kg/injection, schedule: Q01DX001 (ip), vehicle: Klucel (hydroxypropylcellulose) (HPC)
[14] = dose: 400.0 mg/kg/injection, schedule: Q01DX001 (ip), vehicle: Klucel (hydroxypropylcellulose) (HPC)
[15] = dose: 25.0 mg/kg/injection, schedule: Q04DX002 (ip), vehicle: Klucel (hydroxypropylcellulose) (HPC)
[16] = dose: 50.0 mg/kg/injection, schedule: Q04DX002 (ip), vehicle: Klucel (hydroxypropylcellulose) (HPC)
[17] = dose: 50.0 mg/kg/injection, schedule: Q01DX009 (ip), vehicle: saline
[18] = dose: 100.0 mg/kg/injection, schedule: Q01DX009 (ip), vehicle: saline
[19] = dose: 100.0 mg/kg/injection, schedule: Q04DX003 (ip), vehicle: saline
[20] = dose: 12.5 mg/kg/injection, schedule: Q01DX009 (ip), vehicle: Klucel (hydroxypropylcellulose) (HPC)
[21] = dose: 25.0 mg/kg/injection, schedule: Q01DX009 (ip), vehicle: Klucel (hydroxypropylcellulose) (HPC)
[22] = dose: 50.0 mg/kg/injection, schedule: Q01DX009 (ip), vehicle: Klucel (hydroxypropylcellulose) (HPC)
[23] = dose: 100.0 mg/kg/injection, schedule: Q01DX009 (ip), vehicle: Klucel (hydroxypropylcellulose) (HPC)
[24] = dose: 200.0 mg/kg/injection, schedule: Q04DX003 (ip), vehicle: saline
[25] = dose: 400.0 mg/kg/injection, schedule: Q04DX003 (ip), vehicle: saline
[26] = dose: 100.0 mg/kg/injection, schedule: Q01DX009 (ip), vehicle: saline with Tween-80
[27] = dose: 200.0 mg/kg/injection, schedule: Q01DX009 (ip), vehicle: saline with Tween-80
[28] = dose: 400.0 mg/kg/injection, schedule: Q01DX009 (ip), vehicle: saline with Tween-80
[29] = dose: 50.0 mg/kg/injection, schedule: Q01DX009 (ip), vehicle: saline with Tween-80

Measured: T/C

CCCCCOC(=O)Nc1ccc(OCC)cc1
inactive: [1] 105 % of control | [2] 101 % of control | [3] 105 % of control

CSc1ncnc2c1ncn2C1OC(COC(N)=O)C(O)C1O (stereo not given)
inactive: dose: 100.0 mg/kg/injection, schedule: Q01DX005 (ip), vehicle: saline 107 % of control | dose: 200.0 mg/kg/injection, schedule: Q01DX005 (ip), vehicle: saline 114 % of control

COC(=O)C(Cl)(Cl)C1(c2ccccc2)OCC(C)(C)N1C(=O)C(Cl)Cl (stereo not given)
inactive: [4] 115 % of control | [5] 94 % of control | [6] 103 % of control

CC(C)Cc1ccc(N=Nc2ccccc2)cc1
inactive: [4] 93 % of control | [5] 93 % of control | [6] 88 % of control

CC(C)C(N)(CCCN(C)C)c1cccc2ccccc12 (stereo not given)
inactive: dose: 100.0 mg/kg/injection, schedule: Q04DX002 (ip), vehicle: saline with Tween-80 98 % of control

COC(=O)c1cc(=O)[nH]c2c1c(=O)n(C)c(=O)n2C
inactive: [7] 95 % of control | [8] 97 % of control | [9] 90 % of control | [10] 97 % of control | [11] 94 % of control

O=C(c1ccccc1)C(C(NC1CCCCC1)c1ccccc1)N1CCCCC1 (stereo not given)
inactive: [12] 95 % of control | [13] 92 % of control | [14] 92 % of control

Nc1nc(N)c2[nH]c(CCc3ccccc3)nc2n1
inactive: [15] 95 % of control | [16] 91 % of control | [1] 98 % of control

CN=C(Nc1ccccc1)SC
inactive: dose: 25.0 mg/kg/injection, schedule: Q01DX009 (ip), vehicle: saline 92 % of control | dose: 25.0 mg/kg/injection, schedule: Q04DX003 (ip), vehicle: saline 94 % of control | [17] 105 % of control | dose: 50.0 mg/kg/injection, schedule: Q04DX003 (ip), vehicle: saline 97 % of control | dose: 100.0 mg/kg/injection, schedule: Q01DX001 (ip), vehicle: saline 104 % of control | [18] 105 % of control | [19] 97 % of control

NC(=O)N1C(c2ccccc2)C1c1ccccc1 (stereo not given)
inactive: [20] 100 % of control | dose: 12.5 mg/kg/injection, schedule: Q04DX003 (ip), vehicle: Klucel (hydroxypropylcellulose) (HPC) 93 % of control | [21] 97 % of control | dose: 25.0 mg/kg/injection, schedule: Q04DX003 (ip), vehicle: Klucel (hydroxypropylcellulose) (HPC) 100 % of control | [22] 100 % of control | dose: 50.0 mg/kg/injection, schedule: Q04DX003 (ip), vehicle: Klucel (hydroxypropylcellulose) (HPC) 92 % of control

CC(C)(C)OC(=O)C(=[N+]=[N-])C(=O)OC(C)(C)C
inactive: [12] 97 % of control | [23] 102 % of control | [7] 98 % of control | [13] 97 % of control | [8] 105 % of control | [9] 104 % of control | [14] 90 % of control | [10] 105 % of control | [11] 104 % of control

CN(C)CCCNC(CC#N)CCC#N (stereo not given)
inactive: [17] 91 % of control | [18] 92 % of control | dose: 200.0 mg/kg/injection, schedule: Q01DX009 (ip), vehicle: saline 92 % of control

CCOP(=O)(Cc1ccccc1)OCC
inactive: [19] 110 % of control | [24] 103 % of control | [25] 98 % of control

C/C(=N/O)c1ccncc1
inactive: [7] 100 % of control | [9] 95 % of control | [11] 95 % of control

COc1ccc(/C=C2\N=C(c3cc(OC)c(OC)c(OC)c3)OC2=O)cc1Br
inactive: [26] 91 % of control | [27] 91 % of control | [28] 102 % of control

CCCCCCCCCCCCCCCCCCNC(=O)N(c1ccccc1)C1CCCCC1
inactive: [1] 101 % of control | [2] 93 % of control | [3] 87 % of control

COc1ccc(/C=N/NC(=O)CNC(=O)c2ccc(Cl)c(Cl)c2)cc1OC
inactive: [29] 91 % of control | [26] 91 % of control | [27] 102 % of control

CN1C=CC(C(C(N)=O)c2ccccc2)c2ccccc21 (stereo not given)
inactive: [26] 95 % of control | [27] 92 % of control | [28] 92 % of control

CC(C)=CCC(N)C(C)c1ccccc1 (stereo not given)
inactive: [20] 96 % of control | [21] 98 % of control | [15] 94 % of control | [22] 104 % of control | [16] 105 % of control | [1] 102 % of control

Nc1sc(=S)nc2[nH]ncc12
inactive: [22] 90 % of control | [23] 96 % of control | [7] 98 % of control | [8] 93 % of control | [9] 95 % of control | [11] 95 % of control

COC(=O)C/C=C/CC(=O)OC
inactive: [26] 95 % of control | [27] 90 % of control | [28] 88 % of control

COc1ccc(CCN2CCCC2C(=O)O)cc1OC (stereo not given)
inactive: [19] 96 % of control | [24] 94 % of control | [25] 100 % of control

C/C=C/C=C/C(=O)c1cc(C#N)c(OC)cc1O
inactive: dose: 100.0 mg/kg/injection, schedule: Q01DX001 (ip), vehicle: saline with Tween-80 93 % of control | dose: 200.0 mg/kg/injection, schedule: Q01DX001 (ip), vehicle: saline with Tween-80 90 % of control | dose: 400.0 mg/kg/injection, schedule: Q01DX001 (ip), vehicle: saline with Tween-80 93 % of control

O=C(COc1ccccc1C(=O)O)Nc1ccccc1
inactive: [15] 114 % of control | [16] 92 % of control | [1] 96 % of control

Clc1c(CBr)c(Cl)c(CBr)c(Cl)c1CBr
inactive: [21] 90 % of control | [22] 87 % of control | [7] 88 % of control

O=c1c2ccccc2nc(-c2ccccc2)n1/N=C/c1ccccc1O
inactive: [23] 103 % of control | [8] 103 % of control | [10] 100 % of control

Cn1nnnc1CCO
inactive: dose: 100.0 mg/kg/injection, schedule: Q01DX001 (ip), vehicle: acetone 94 % of control | dose: 200.0 mg/kg/injection, schedule: Q01DX001 (ip), vehicle: acetone 97 % of control | dose: 400.0 mg/kg/injection, schedule: Q01DX001 (ip), vehicle: acetone 97 % of control

CCN(CC)CCC(=O)Nc1cccc2c1C(=O)c1c(c(O)c3ccccc3c1O)C2=O
inactive: [29] 105 % of control | [26] 91 % of control | [4] 105 % of control | [5] 90 % of control

CC(=O)n1c(O)c(N=Nc2ccccc2[N+](=O)[O-])c2ccccc21
inactive: dose: 100.0 mg/kg/injection, schedule: Q01DX001 (ip), vehicle: other 92 % of control | dose: 200.0 mg/kg/injection, schedule: Q01DX001 (ip), vehicle: other 93 % of control | dose: 400.0 mg/kg/injection, schedule: Q01DX001 (ip), vehicle: other 98 % of control

C[N+](C)(C)/N=C/c1ccc(Cl)cc1
inactive: dose: 5.0 mg/kg/injection, schedule: Q01DX001 (ip), vehicle: carboxymethylcellulose (CMC) 98 % of control | dose: 10.0 mg/kg/injection, schedule: Q01DX001 (ip), vehicle: carboxymethylcellulose (CMC) 104 % of control | dose: 20.0 mg/kg/injection, schedule: Q01DX001 (ip), vehicle: carboxymethylcellulose (CMC) 95 % of control | dose: 40.0 mg/kg/injection, schedule: Q01DX001 (ip), vehicle: carboxymethylcellulose (CMC) 104 % of control

CC(=O)C(CCS(C)(=O)=O)(CCS(C)(=O)=O)c1ccccc1
inactive: [7] 112 % of control | [9] 108 % of control | [11] 100 % of control

CCN(CC)CCCNc1nc(C(Cl)(Cl)Cl)nc2ccc(I)cc12
inactive: [23] 96 % of control | [8] 100 % of control
